Reference: ChEMBL document CHEMBL1146003, “Synthesis of 13-(substituted benzyl) berberine and berberrubine derivatives as antifungal agents” (2006)
In brackets after ≈: the same amount, converted by molar mass.

Legend:
Type in all cases: functional
Candida albicans = test: Antifungal activity against Candida albicans ATCC 10231 by broth microdilution method
Candida tropicalis = test: Antifungal activity against Candida tropicalis ATCC 13803 by broth microdilution method
Clavispora lusitaniae = test: Antifungal activity against Candida lusitaniae ATCC 42720 by broth microdilution method
Pichia kudriavzevii = test: Antifungal activity against Candida krusei ATCC 6258 by broth microdilution method
Aspergillus fumigatus = test: Antifungal activity against Aspergillus fumigatus ATCC 16424 by broth microdilution method
Aspergillus terreus = test: Antifungal activity against Aspergillus terreus ATCC 46941 by broth microdilution method
Cryptococcus neoformans = test: Antifungal activity against Cryptococcus neoformans ATCC 36556 by broth microdilution method

SMILES	MIC (Candida albicans) [µg/mL]	MIC (Candida tropicalis) [µg/mL]	MIC (Clavispora lusitaniae) [µg/mL]	MIC (Pichia kudriavzevii) [µg/mL]	MIC (Aspergillus fumigatus) [µg/mL]	MIC (Aspergillus terreus) [µg/mL]	MIC (Cryptococcus neoformans) [µg/mL]
COc1ccc2c(Cc3ccc(C(C)C)cc3)c3[n+](cc2c1OC)CCc1cc2c(cc1-3)OCO2.[Cl-]	4	1	8	4	64	32	4
COc1ccc2c(Cc3ccc(C(C)(C)C)cc3)c3[n+](cc2c1OC)CCc1cc2c(cc1-3)OCO2.[Cl-]	4	2	8	8	64	64	4
COc1ccc2c(Cc3cc(F)cc(F)c3)c3[n+](cc2c1OC)CCc1cc2c(cc1-3)OCO2.[Cl-]	128	32	64	64	> 128	> 128	32
COc1ccc2c(Cc3ccc(C(F)(F)F)cc3)c3[n+](cc2c1O)CCc1cc2c(cc1-3)OCO2.[Cl-]	128	64	64	64	> 128	> 128	16
COc1ccc2c(Cc3ccc(C(C)(C)C)cc3)c3[n+](cc2c1O)CCc1cc2c(cc1-3)OCO2.[Cl-]	16	16	8	32	> 128	> 128	8
COc1ccc2c(Cc3cc(F)c(F)c(F)c3)c3[n+](cc2c1O)CCc1cc2c(cc1-3)OCO2.[Cl-]	> 128	128	128	128	> 128	> 128	64
COc1cc(Cc2c3[n+](cc4c(O)c(OC)ccc24)CCc2cc4c(cc2-3)OCO4)cc(OC)c1OC.[Cl-]	> 128	128	128	> 128	> 128	> 128	32
COc1ccc2c(Cc3ccc(C(C)C)cc3)c3[n+](cc2c1O)CCc1cc2c(cc1-3)OCO2.[Cl-]	16	16	8	16	> 128	> 128	4
COc1cc(Cc2c3[n+](cc4c(OC)c(OC)ccc24)CCc2cc4c(cc2-3)OCO4)cc(OC)c1OC.[Cl-]	128	64	128	64	> 128	> 128	32
COc1ccc2c(Cc3cc(F)c(F)c(F)c3)c3[n+](cc2c1OC)CCc1cc2c(cc1-3)OCO2.[Cl-]	128	64	128	64	> 128	> 128	64
COc1ccc2c(Cc3cc(F)cc(F)c3)c3[n+](cc2c1O)CCc1cc2c(cc1-3)OCO2.[Cl-]	> 128	128	128	128	> 128	> 128	32
COc1ccc2c(Cc3ccc(C(F)(F)F)cc3)c3[n+](cc2c1OC)CCc1cc2c(cc1-3)OCO2.[Cl-]	32	16	32	32	> 128	> 128	16
COc1ccc2c(Cc3ccc(OC(F)(F)F)cc3)c3[n+](cc2c1OC)CCc1cc2c(cc1-3)OCO2.[Cl-]	16	8	32	16	> 128	> 128	16
COc1ccc2c(Cc3ccc(OC(F)(F)F)cc3)c3[n+](cc2c1O)CCc1cc2c(cc1-3)OCO2.[Cl-]	64	32	32	32	> 128	> 128	16
C[C@@H]1[C@H](O)[C@@H](C)/C=C/C=C/C=C/C=C/C=C/C=C/C=C/[C@H](O[C@@H]2O[C@H](C)[C@@H](O)[C@H](N)[C@@H]2O)C[C@@H]2O[C@](O)(C[C@@H](O)C[C@@H](O)[C@H](O)CC[C@@H](O)C[C@@H](O)CC(=O)O[C@H]1C)C[C@H](O)[C@H]2C(=O)O [AMPHOTERICIN B]	0.5 (≈ 0.541 µM)	0.5 (≈ 0.541 µM)	1 (≈ 1.08 µM)	0.5 (≈ 0.541 µM)	1 (≈ 1.08 µM)	16 (≈ 17.3 µM)	0.25 (≈ 0.271 µM)
COc1ccc2cc3[n+](cc2c1OC)CCc1cc2c(cc1-3)OCO2.[Cl-] [BERBERINE CHLORIDE]	128	16	> 128	32	> 128	> 128	64
COc1ccc2cc3[n+](cc2c1O)CCc1cc2c(cc1-3)OCO2 [BERBERRUBINE]	> 128	128	> 128	> 128	> 128	> 128	> 128
